Measured values: ChEMBL document CHEMBL1201862, “PubChem BioAssay data set” (2004)
Calls of active or inactive are those of the source.

Experiments:
[1] = blockers of HIV-1 ZM109 envelope-driven cell-cell fusion – HeLa effector, CEM target cells, luciferase, cherry-pick, dose response (AID 652058); assay type: functional, cell-based;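 further: luciferase signal from HIV-1 Env mediated cell-cell fusion of effector and target cells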
P388/ADR = experiment: cells; assay type: functional; settings: Mus musculus
P388 = experiment: cells; assay type: functional; settings: Mus musculus
SN12K1 = experiment: cells; assay type: functional; settings: Homo sapiens
[2] = biological target: SWI/SNF-related matrix-associated actin-dependent regulator of chromatin subfamily A member 2 (Homo sapiens, UniProt P51531); experiment: Luminescence-based cell-based high throughput dose response assay to identify activators of the function of SWI/SNF related, matrix associated, actin dependent regulator of chromatin, subfamily a, member 2 (SMARCA2, BRM).; assay type: functional
Chain of SWI/SNF-related matrix-associated actin-dependent regulator of chromatin subfamily A member 2 (P51531 whole entry): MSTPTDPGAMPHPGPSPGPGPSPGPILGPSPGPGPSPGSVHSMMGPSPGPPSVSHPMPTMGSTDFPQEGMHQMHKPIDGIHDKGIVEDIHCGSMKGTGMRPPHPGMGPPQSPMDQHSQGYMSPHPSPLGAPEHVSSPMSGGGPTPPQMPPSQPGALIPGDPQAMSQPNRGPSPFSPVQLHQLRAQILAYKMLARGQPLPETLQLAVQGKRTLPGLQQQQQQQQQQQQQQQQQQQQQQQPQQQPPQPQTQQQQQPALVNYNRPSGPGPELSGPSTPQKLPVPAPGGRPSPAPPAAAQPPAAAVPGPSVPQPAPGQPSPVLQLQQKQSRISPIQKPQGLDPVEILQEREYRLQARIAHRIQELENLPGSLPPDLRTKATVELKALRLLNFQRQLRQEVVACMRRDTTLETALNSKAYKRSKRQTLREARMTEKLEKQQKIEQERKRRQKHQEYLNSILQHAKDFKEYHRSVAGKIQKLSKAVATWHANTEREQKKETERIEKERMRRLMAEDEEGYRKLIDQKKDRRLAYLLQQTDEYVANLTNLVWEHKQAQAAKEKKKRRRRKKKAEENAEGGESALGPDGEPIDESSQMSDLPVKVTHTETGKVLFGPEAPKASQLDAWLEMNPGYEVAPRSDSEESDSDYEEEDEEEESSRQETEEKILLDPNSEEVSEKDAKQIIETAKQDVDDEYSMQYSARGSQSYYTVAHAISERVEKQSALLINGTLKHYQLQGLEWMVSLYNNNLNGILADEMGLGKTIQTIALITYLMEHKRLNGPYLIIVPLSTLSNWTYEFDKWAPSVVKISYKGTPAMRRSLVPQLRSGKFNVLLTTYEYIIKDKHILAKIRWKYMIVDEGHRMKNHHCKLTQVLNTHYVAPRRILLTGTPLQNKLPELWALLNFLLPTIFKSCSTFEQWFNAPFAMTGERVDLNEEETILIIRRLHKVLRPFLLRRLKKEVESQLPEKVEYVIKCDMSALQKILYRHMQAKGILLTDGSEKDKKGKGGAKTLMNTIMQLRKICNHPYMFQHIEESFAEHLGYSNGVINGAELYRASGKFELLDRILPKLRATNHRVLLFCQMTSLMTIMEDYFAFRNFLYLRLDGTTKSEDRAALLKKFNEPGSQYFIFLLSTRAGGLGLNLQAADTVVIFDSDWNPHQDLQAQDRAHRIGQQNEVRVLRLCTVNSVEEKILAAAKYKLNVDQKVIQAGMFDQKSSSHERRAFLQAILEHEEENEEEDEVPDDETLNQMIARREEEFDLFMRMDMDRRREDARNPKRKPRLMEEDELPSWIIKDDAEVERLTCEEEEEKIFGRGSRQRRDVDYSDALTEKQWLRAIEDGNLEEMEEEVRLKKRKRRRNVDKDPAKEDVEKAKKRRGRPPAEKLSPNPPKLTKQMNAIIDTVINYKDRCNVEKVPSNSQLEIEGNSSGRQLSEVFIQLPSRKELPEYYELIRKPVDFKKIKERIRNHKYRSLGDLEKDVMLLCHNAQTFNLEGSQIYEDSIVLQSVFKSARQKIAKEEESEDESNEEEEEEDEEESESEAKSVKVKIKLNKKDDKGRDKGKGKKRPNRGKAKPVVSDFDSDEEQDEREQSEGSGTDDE

[3] = Counterscreen for activators of the function of SWI/SNF related, matrix associated, actin dependent regulator of chromatin, subfamily a, member 2 (SMARCA2, BRM): Luminescence-based cell-based high throughput dose response assay to identify non-selective compounds using the VP16 reporter assay.; assay type: functional
[4] = biological target: T1, Sentrin-specific protease 8 (Homo sapiens, UniProt Q96LD8); assay type: functional;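 further: luminescence read-out of SENP8 inhibition, dose-response confirmation following an ultra-high-throughput screen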
T1 sequence (Q96LD8 whole entry): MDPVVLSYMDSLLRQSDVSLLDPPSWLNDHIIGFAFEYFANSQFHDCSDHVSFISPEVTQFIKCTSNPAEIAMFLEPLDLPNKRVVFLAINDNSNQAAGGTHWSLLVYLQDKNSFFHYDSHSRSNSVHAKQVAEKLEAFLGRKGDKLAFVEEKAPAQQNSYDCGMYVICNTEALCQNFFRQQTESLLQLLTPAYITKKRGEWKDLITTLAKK

Caspase-3 = biological target: T2, Caspase-3 (Homo sapiens, UniProt P42574); assay type: functional;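 further: Dose-response selectivity test against caspase-3 for candidate inhibitors of sentrin-specific proteases (SENPs)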
T2 sequence (P42574 whole entry): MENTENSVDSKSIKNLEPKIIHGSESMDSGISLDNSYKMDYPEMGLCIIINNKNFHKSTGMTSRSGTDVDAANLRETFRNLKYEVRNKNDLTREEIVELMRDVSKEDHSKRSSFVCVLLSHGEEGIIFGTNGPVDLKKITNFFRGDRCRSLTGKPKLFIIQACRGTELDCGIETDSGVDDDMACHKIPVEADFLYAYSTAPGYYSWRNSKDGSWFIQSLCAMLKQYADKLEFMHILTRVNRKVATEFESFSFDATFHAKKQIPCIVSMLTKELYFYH

[5] = biological target: T3, Sentrin-specific protease 6 (Homo sapiens, UniProt Q9GZR1); assay type: functional;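 further: Luminescence-based dose-response confirmatory assay of SENP6 inhibition, following up an ultra-high-throughput screen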
T3 sequence (Q9GZR1 whole entry): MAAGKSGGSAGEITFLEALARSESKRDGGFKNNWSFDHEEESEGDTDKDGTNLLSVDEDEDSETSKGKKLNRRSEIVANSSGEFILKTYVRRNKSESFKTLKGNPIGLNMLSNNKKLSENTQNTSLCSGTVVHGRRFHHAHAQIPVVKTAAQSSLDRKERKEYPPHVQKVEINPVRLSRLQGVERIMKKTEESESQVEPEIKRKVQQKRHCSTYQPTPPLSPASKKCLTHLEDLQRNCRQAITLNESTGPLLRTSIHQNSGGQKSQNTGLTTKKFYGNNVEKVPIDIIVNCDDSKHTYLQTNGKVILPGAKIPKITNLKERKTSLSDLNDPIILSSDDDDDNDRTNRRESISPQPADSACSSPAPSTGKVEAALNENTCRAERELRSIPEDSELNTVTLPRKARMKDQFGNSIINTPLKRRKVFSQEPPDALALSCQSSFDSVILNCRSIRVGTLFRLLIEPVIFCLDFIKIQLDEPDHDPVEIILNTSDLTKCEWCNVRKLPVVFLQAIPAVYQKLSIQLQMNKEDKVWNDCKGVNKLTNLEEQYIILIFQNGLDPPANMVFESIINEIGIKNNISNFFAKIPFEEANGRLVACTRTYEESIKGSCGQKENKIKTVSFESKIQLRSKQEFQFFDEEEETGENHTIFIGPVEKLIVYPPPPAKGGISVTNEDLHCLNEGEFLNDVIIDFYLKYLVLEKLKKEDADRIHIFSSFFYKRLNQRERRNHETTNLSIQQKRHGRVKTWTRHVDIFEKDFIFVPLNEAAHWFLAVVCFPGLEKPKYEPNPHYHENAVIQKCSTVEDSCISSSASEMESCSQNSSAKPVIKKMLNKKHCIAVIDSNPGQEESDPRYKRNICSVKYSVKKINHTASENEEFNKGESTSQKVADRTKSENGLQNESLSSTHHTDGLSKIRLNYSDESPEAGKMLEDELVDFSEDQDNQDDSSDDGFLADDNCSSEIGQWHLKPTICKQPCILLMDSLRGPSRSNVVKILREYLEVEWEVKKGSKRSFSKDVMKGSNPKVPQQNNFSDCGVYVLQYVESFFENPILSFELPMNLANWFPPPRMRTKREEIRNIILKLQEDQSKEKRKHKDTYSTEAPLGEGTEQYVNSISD

[6] = biological target: T4, Sentrin-specific protease 7 (Homo sapiens, UniProt Q9BQF6); assay type: functional;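 further: Luminescence-based dose-response confirmation of ultra-high-throughput screening hits, measuring inhibition of SENP7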
T4 sequence (Q9BQF6 whole entry): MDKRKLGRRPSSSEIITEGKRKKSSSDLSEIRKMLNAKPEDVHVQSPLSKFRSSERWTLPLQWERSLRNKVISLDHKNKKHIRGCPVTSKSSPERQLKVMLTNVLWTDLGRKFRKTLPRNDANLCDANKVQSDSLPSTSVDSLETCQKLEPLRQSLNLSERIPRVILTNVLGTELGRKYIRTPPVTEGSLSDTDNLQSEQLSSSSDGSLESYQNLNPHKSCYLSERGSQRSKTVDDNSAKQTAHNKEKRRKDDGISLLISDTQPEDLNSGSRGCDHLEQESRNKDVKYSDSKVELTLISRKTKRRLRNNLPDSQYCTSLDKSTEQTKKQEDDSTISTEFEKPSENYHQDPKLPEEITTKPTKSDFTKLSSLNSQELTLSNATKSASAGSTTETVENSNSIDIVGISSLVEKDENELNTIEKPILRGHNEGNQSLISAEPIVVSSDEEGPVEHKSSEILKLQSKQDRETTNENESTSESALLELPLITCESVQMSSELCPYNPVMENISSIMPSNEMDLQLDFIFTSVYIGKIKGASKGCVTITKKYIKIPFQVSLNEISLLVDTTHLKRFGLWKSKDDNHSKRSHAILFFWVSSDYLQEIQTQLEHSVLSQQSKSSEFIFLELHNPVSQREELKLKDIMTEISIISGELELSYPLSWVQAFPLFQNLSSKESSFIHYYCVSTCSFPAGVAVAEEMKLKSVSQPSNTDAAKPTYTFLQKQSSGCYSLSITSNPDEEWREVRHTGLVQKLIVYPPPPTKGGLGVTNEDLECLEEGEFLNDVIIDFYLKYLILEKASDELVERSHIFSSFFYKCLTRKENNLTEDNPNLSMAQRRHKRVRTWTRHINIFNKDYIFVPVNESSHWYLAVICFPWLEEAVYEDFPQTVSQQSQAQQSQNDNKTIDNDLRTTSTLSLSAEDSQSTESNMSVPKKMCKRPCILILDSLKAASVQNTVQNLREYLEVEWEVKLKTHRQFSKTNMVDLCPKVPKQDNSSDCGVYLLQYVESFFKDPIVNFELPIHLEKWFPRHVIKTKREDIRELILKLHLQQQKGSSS

[7] = biological target: T5, DNA repair and recombination protein RAD54-like (Homo sapiens, UniProt Q92698); experiment: RAD54 Holliday junction migration blockers – biochemical, fluorescence, cherry-picked samples, dose series, confirmation (AID 651657); assay type: functional
T5 sequence (Q92698 whole entry): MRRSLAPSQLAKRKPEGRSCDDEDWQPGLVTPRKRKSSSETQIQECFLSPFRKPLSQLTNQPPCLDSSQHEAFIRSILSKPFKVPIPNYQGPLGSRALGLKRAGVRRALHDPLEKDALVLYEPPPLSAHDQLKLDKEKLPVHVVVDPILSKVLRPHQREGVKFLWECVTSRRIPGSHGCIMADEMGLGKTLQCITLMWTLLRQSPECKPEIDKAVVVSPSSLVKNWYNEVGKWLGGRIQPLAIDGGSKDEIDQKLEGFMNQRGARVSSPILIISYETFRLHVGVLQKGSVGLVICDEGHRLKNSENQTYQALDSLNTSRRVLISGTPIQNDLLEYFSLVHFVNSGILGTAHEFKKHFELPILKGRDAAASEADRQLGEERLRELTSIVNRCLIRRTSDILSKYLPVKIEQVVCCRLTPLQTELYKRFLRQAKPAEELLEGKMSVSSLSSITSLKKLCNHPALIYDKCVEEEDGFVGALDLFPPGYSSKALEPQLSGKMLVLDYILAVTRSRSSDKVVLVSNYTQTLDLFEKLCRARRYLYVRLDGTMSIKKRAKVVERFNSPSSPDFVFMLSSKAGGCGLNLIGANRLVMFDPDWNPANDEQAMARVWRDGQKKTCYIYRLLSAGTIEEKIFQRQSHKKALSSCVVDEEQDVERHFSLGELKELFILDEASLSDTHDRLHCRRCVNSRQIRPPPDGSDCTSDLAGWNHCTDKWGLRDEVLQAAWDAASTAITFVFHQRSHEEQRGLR

[8] = OVCAR8 cell viability loss – plate reader, dry powder samples, PAX8 project, dose response (AID 743197); assay type: functional, cell-based; settings: OVCAR-8
Paired box protein Pax-8 = Paired box protein Pax-8 (Homo sapiens, UniProt Q06710); experiment: PAX8 transcriptional activity inhibition in RMG-I – RMG-I cells, luciferase, cherry-pick, dose response (AID 687027); assay type: functional, cell-based;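 further: luciferase reporter driven by Pax8 target thyroperoxidase promoter measured by SteadyGlo luminescence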
Chain of Paired box protein Pax-8 (Q06710 whole entry): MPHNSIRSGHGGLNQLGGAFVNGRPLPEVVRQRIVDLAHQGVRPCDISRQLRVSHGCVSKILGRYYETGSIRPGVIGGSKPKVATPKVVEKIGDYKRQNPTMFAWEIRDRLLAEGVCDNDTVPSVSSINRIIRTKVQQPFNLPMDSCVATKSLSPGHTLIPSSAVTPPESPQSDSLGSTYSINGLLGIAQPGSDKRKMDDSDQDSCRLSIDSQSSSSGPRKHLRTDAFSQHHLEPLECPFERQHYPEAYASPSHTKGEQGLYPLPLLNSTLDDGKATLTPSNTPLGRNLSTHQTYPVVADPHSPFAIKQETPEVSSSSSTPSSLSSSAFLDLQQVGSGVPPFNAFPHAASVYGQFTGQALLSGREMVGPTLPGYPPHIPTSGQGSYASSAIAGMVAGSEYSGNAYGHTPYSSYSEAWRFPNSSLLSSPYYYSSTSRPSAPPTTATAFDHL

[9] = OVCAR-3 cell viability loss – plate reader, dry powder samples, PAX8 inhibitor project, dose response (AID 743044); assay type: functional, cell-based
[10] = general cell-killing toxicity readout – plate reader, dry powder samples, cytotoxicity control for PAX8 inhibitor project, dose response (AID 743021); assay type: functional, cell-based
[11] = IGROV1 cell killing – plate reader, dry powder samples, PAX8 inhibitor project, dose response (AID 743043); assay type: functional, cell-based; settings: IGROV-1
[12] = test system: Streptococcus sp. 'group A'; experiment: Streptococcus pyogenes SK(-)GAS viability under kanamycin – luminescence, BacTiterGlo, confirmation, counter-screen for streptokinase expression inhibitor project, dose response (AID 1900); assay type: functional, organism-based
Streptococcus = experiment: GAS UMAA2166 growth inhibition – luminescence, BacTiterGlo, counter-screen for streptokinase expression inhibitor project, dose response (AID 1915); assay type: functional, organism-based;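 further: potency for reduction of bacterial viability or growth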
Streptokinase A = biological target: T6, Streptokinase A (Streptococcus pyogenes serotype M1, UniProt P10520); experiment: viability-normalized secreted streptokinase activity reduction – plasminogen activation absorbance, OD405, dose response (AID 1914); assay type: functional, Streptococcus pyogenes M1 GAS;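 further: secreted streptokinase activity via plasminogen activation per viability signal from cell pellet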
T6 sequence (P10520 whole entry): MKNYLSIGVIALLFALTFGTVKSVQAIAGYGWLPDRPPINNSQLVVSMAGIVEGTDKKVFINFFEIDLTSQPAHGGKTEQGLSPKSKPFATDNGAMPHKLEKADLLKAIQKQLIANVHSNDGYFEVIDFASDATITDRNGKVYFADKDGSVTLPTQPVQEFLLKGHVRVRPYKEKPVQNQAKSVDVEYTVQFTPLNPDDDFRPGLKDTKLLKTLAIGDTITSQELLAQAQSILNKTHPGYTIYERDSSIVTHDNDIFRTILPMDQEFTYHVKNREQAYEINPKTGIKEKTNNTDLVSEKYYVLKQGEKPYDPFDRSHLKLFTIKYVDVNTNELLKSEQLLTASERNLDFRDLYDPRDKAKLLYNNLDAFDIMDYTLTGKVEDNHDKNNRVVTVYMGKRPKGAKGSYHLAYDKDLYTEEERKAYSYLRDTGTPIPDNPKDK

Structure (SMILES): O=C(Nc1ccc(F)cc1)Nc1ccc2c(c1)[C@@H]1C[C@H](CC(=O)N3CCCCC3)O[C@@H](CO)[C@@H]1O2
- AC50 [1]: 35 µM (active)

Structure (SMILES): CC[C@@]1(O)CC(OC2CC(N3CCOCC3)C(O)C(C)O2)c2c(O)c3c(c(O)c2[C@H]1O)C(=O)c1cccc(O)c1C3=O (stereo partly specified)
- GI50 (P388/ADR): 9.75e-06 µM (active)
- GI50 (P388): 0.00366 µM (active)

Structure (SMILES): CCCCS(=O)(=O)Nc1ccc(Nc2c3ccccc3nc3ccccc23)c(OC)c1
- GI50 (P388/ADR): 0.255 µM (active)
- GI50 (SN12K1): 1.26 µM (inactive)
- GI50 (P388): < 0.01 µM (active)

Structure (SMILES): Cc1cc(O)c2c(c1)C(=O)c1c(c(O)cc(O)c1-c1c(O)cc(O)c3c1C(=O)c1cc(C)cc(O)c1C3=O)C2=O [SKYRIN]
- GI50 (P388/ADR): 17.9 µM (inactive)
- GI50 (SN12K1): 9.23 µM (inactive)
- GI50 (P388): 8.95 µM (inactive)

Structure (SMILES): Clc1ccc(CO/N=C2\CCCc3nonc32)cc1
- EC50 [2]: > 91.2 µM (inactive)
- EC50 [3]: > 91.2 µM (inactive)

Structure (SMILES): O=C(c1cccs1)c1coc2ccc(O)cc12
- IC50 [4]: > 100 µM (inactive)
- IC50 (Caspase-3): 13.7 µM (active)
- IC50 [5]: 10.6 µM (active)
- IC50 [6]: 7.28 µM (active)

Structure (SMILES): Cc1n[nH]c(SCC(=O)N2CCc3ccccc32)n1
- EC50 [2]: > 91 µM (inactive)
- EC50 [3]: > 91 µM (inactive)

Structure (SMILES): Nc1nc(O)c2ncn(C3OC(CO)C(O)C3O)c2n1 (stereo unspecified)
- GI50 (P388/ADR): 2.33 µM (inactive)
- GI50 (SN12K1): 63.2 µM (inactive)
- GI50 (P388): 9.73 µM (inactive)

Structure (SMILES): OC(CBr)C(O)C(O)C(O)CBr (stereo unspecified)
- GI50 (P388/ADR): 5.89 µM (inactive)
- GI50 (SN12K1): > 100 µM (inactive)
- GI50 (P388): 3.53 µM (inactive)

Structure (SMILES): CCOC(=O)c1cnc2ccc(C)cc2c1NCCN1CCOCC1
- AC50 [7]: 98.8 µM (active)

Structure (SMILES): Cc1ccc(S(=O)(=O)Nc2ccc3c(c2)C(=O)N([C@@H](C)CO)C[C@@H](C)[C@H](CN(C)Cc2ccc(C(F)(F)F)cc2)OCCCC[C@@H](C)O3)cc1
- AC50 [8]: > 70 µM (inactive)
- AC50 (Paired box protein Pax-8): 8.98 µM (active)
- AC50 [9]: 17.9 µM (active)
- AC50 [10]: 43 µM (active)
- AC50 [11]: 36.9 µM (active)

Structure (SMILES): Cc1cccc(Nc2nc(-c3ccc(F)c(C)c3)cs2)n1
- IC50 [4]: 41.5 µM (active)
- IC50 (Caspase-3): 41.4 µM (active)
- EC50 [12]: 8.77 µM (active)
- IC50 [5]: 24 µM (active)
- EC50 (Streptococcus): 26.7 µM (active)
- EC50 (Streptokinase A): > 50 µM (not active)
- IC50 [6]: 5.75 µM (active)
